Here are results for 22 molecules from patent US10544130B2, “Metallo-beta-lactamase inhibitors” (priority 2015, dated 2020).

Data set [1] relates to Klebsiella pneumoniae expressing VIM-1 (IHMA599644). The format is cell-based. To be noted: with imipenem 1 μg/ml; 95% inhibition of bacterial growth. The essentials:
(§1)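 Clinical strains were grown overnight at 35 °C on blood agar, adjusted to set OD600 in saline and diluted 1:100 into 1.1× CAMHB. Inhibitor was tested with and without imipenem at 1 μg/ml. After 22–24 h at 35 °C, absorbance was read to give synergistic concentration.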

Data set [2] deals with Escherichia coli expressing NDM-1 (CLB30005, CLB30016). It counts as cell-based. The conditions noted are these: with imipenem 1 μg/ml; 95% inhibition of bacterial growth. Put shortly:
as §1

Data set [3] deals with Serratia marcescens expressing IMP-1 (CL5741). The format is cell-based. The conditions noted are these: with imipenem 1 μg/ml; 95% inhibition of bacterial growth. Put shortly: as §1
The test system of data set [4] is Pseudomonas aeruginosa PAO1 MB9798 (efflux+, IMP-1). The conditions noted are these: ratio MITC95 PA 9798/MITC95 PA 9799; imipenem at 2 μg/mL. Put shortly: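 Isogenic PAO1 pair (efflux+ MB9798, efflux− MB9799, both IMP-1) tested by microbroth MIC with fixed imipenem and/or ceftazidime, usually at CLSI breakpoint, plus fixed class A/C inhibitor against AmpC. MBL inhibitor titrated; concentration restoring susceptibility recorded and fold difference between strains taken as efflux extent.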

`NCC(CN)NS(=O)(=O)c1ccc(-c2ccnc(N)c2)c(-c2nn[nH]n2)c1S(N)(=O)=O` [Example 405, 4-(2-aminopyridin-4-yl)-N^1-(1,3-diaminopropan-2-yl)-3-(2H-tetrazol-5-yl)benzene-1,2-disulfonamide]: in data set [1], the “Klebsiella pneumoniae (VIM-1) MITC95” value came to 25 µM.
The same measure, in the same setting: to `NC(=O)c1csc(Nc2cccc(-c3ccc(S(=O)(=O)N[C@@H]4CCNC4)c(S(N)(=O)=O)c3-c3nn[nH]n3)c2)n1` [Example 471, (R)-2-((4′-(N-(pyrrolidin-3-yl)sulfamoyl)-3′-sulfamoyl-2′-(2H-tetrazol-5-yl)-[1,1′-biphenyl]-3-yl)amino)thiazole-4-carboxamide] belongs 3.125 µM.
Consider `NCC(CO)(CO)NS(=O)(=O)c1ccc(-c2cccc3[nH]c(N)nc23)c(-c2nn[nH]n2)c1S(N)(=O)=O` [Example 247, 4-(2-amino-1H-benzo[d]imidazol-4-yl)-N-1-(1-amino-3-hydroxy-2-(hydroxymethyl)propan-2-yl)-3-(2H-tetrazol-5-yl)benzene-1,2-disulfonamide], for which the “Escherichia coli (NDM-1) MITC95” value in data set [2] was 0.7813 µM. Also, the “Serratia marcescens (IMP-1) MITC95” value in data set [3] was found to be 1.563 µM. Besides, the Efflux ratio in data set [4] was 2.00.
For `NCc1nc2c(-c3ccc(S(=O)(=O)NC[C@@H](O)CN)c(S(N)(=O)=O)c3-c3nn[nH]n3)cccc2s1` [Example 306, (S)—N1-(3-amino-2-hydroxypropyl)-4-(2-(aminomethyl)benzo[d]thiazol-4-yl)-(2H-tetrazol-5-yl)benzene-1,2-disulfonamide] the same measures were 0.7813 µM, 0.7813 µM and 1.00.
In the case of `NCCNS(=O)(=O)c1ccc(-c2ccnc(N)c2)c(-c2nn[nH]n2)c1S(N)(=O)=O` [Example 400, N^1-(2-aminoethyl)-4-(2-aminopyridin-4-yl)-3-(2H-tetrazol-5-yl)benzene-1,2-disulfonamide], the “Klebsiella pneumoniae (VIM-1) MITC95” value in data set [1] was found to be 1.563 µM.
For the molecule `Nc1nc2c(-c3ccc(S(=O)(=O)NC[C@@]4(N)CCNC4)c(S(N)(=O)=O)c3-c3nn[nH]n3)cccc2[nH]1` [Example 251, (R)-4-(2-amino-1H-benzo[d]imidazol-4-yl)-N1-((3-aminopyrrolidin-3-yl)methyl)-3-(2H-tetrazol-5-yl)benzene-1,2-disulfonamide], in data set [2], the “Escherichia coli (NDM-1) MITC95” value was 0.7813 µM. The “Serratia marcescens (IMP-1) MITC95” value in data set [3] came out at 0.7813 µM. Moreover, in data set [4], the Efflux ratio is 1.00.
For `NC[C@H](N)CNS(=O)(=O)c1ccc(-c2ccc(N)nc2)c(-c2nn[nH]n2)c1S(N)(=O)=O` [Example 415, (S)-4-(6-aminopyridin-3-yl)-N^1-(2,3-diaminopropyl)-3-(2H-tetrazol-5-yl)benzene-1,2-disulfonamide], the “Klebsiella pneumoniae (VIM-1) MITC95” value in data set [1] stood at 3.125 µM.
For the molecule `Nc1nc2c(-c3ccc(S(=O)(=O)NC[C@@H]4CNCCN4)c(S(N)(=O)=O)c3-c3nn[nH]n3)cccc2[nH]1` [Example 310, (S)-4-(2-amino-1H-benzo[d]imidazol-4-yl)-N1-(piperazin-2-ylmethyl)-3-(2H-tetrazol-5-yl)benzene-1,2-disulfonamide], the “Escherichia coli (NDM-1) MITC95” value in data set [2] was 0.7813 µM. Moreover, in data set [3], the “Serratia marcescens (IMP-1) MITC95” value amounted to 0.7813 µM. Besides, in data set [4], the Efflux ratio was determined as 1.00.
In the case of `NS(=O)(=O)c1c(S(=O)(=O)N[C@@H]2CCNC2)ccc(-c2cccc3ncccc23)c1-c1nn[nH]n1` [Example 287, (R)-N1-(pyrrolidin-3-yl)-4-(quinolin-5-yl)-3-(2H-tetrazol-5-yl)benzene-1,2-disulfonamide], the “Escherichia coli (NDM-1) MITC95” value in data set [2] was 1.563 µM. Moreover, the “Serratia marcescens (IMP-1) MITC95” value in data set [3] was 1.563 µM. Also, in data set [4], the Efflux ratio is 1.00.
As for `Nc1ncc(-c2ccc(S(=O)(=O)N[C@@H]3CNC[C@@H]3N)c(S(N)(=O)=O)c2-c2nn[nH]n2)s1` [Example 321, N^1-((3R,4S)-4-aminopyrrolidin-3-yl)-4-(2-aminothiazol-5-yl)-3-(2H-tetrazol-5-yl)benzene-1,2-disulfonamide], the “Escherichia coli (NDM-1) MITC95” value in data set [2] is 0.7813 µM. The “Serratia marcescens (IMP-1) MITC95” value in data set [3] was 1.563 µM. The Efflux ratio in data set [4] was 2.00.
For `NC[C@H](CO)NS(=O)(=O)c1ccc(-c2cccc(N)n2)c(-c2nn[nH]n2)c1S(N)(=O)=O` [Example 364, (R)—N^1-(1-amino-3-hydroxypropan-2-yl)-4-(6-aminopyridin-2-yl)-3-(2H-tetrazol-5-yl)benzene-1,2-disulfonamide] the same measures were 3.125 µM, 3.125 µM and 2.00.
For `NCCNS(=O)(=O)c1ccc(-c2cccc(SCC(N)CO)c2)c(-c2nn[nH]n2)c1S(N)(=O)=O` (stereo not shown) [Example 354, 3′-((2-amino-3-hydroxypropyl)thio)-N4-(2-aminoethyl)-2-(2H-tetrazol-5-yl)-[1,1′-biphenyl]-3,4-disulfonamide] the same measures were 0.3906 µM, 1.563 µM and 4.00.
For `Nc1nc2c(-c3ccc(S(=O)(=O)NC[C@]4(N)CCNC4)c(S(N)(=O)=O)c3-c3nn[nH]n3)cccc2s1` [Example 366, (S)-4-(2-aminobenzo[d]thiazol-4-yl)-N^1-((3-aminopyrrolidin-3-yl)methyl)-3-(2H-tetrazol-5-yl)benzene-1,2-disulfonamide] the same measures were 0.7813 µM, 1.563 µM and 1.00.
Consider `NC[C@@H](N)CNS(=O)(=O)c1ccc(-c2cnc(N)s2)c(-c2nn[nH]n2)c1S(N)(=O)=O` [Example 377, (R)-4-(2-aminothiazol-5-yl)-N1-(2,3-diaminopropyl)-3-(2H-tetrazol-5-yl)benzene-1,2-disulfonamide], for which the “Escherichia coli (NDM-1) MITC95” value in data set [2] came to 0.7813 µM. Also, in data set [3], the “Serratia marcescens (IMP-1) MITC95” value was found to be 1.563 µM. The Efflux ratio in data set [4] was found to be 2.00.
The matching figures for `CNc1ccc(-c2ccc(S(=O)(=O)N[C@@H]3CCNC3)c(S(N)(=O)=O)c2-c2nn[nH]n2)cn1` [Example 242]: 0.7813 µM, 0.7813 µM and 1.00.
Consider `NCc1nc2cc(-c3ccc(S(=O)(=O)N[C@@H]4CCNC4)c(S(N)(=O)=O)c3-c3nn[nH]n3)ccc2s1` [Example 275, (R)-4-(2-(aminomethyl)benzo[d]thiazol-5-yl)-N^1-(pyrrolidin-3-yl)-3-(2H-tetrazol-5-yl)benzene-1,2-disulfonamide], for which the “Escherichia coli (NDM-1) MITC95” value in data set [2] amounted to 0.7813 µM. In addition, the “Serratia marcescens (IMP-1) MITC95” value in data set [3] is 0.7813 µM. Further, the Efflux ratio in data set [4] amounted to 1.00.
`NCc1nc2c(-c3ccc(S(=O)(=O)N[C@@H](CN)CO)c(S(N)(=O)=O)c3-c3nn[nH]n3)cccc2s1` [Example 381, (S)—N1-(1-amino-3-hydroxypropan-2-yl)-4-(2-(aminomethyl)benzo[d]thiazol-4-yl)-3-(2H-tetrazol-5-yl)benzene-1,2-disulfonamide]: the “Escherichia coli (NDM-1) MITC95” value in data set [2] turned out to be 0.7813 µM. For the same molecule, the “Serratia marcescens (IMP-1) MITC95” value in data set [3] worked out at 1.172 µM. For the same molecule, the Efflux ratio in data set [4] is 1.50.
On to `NC[C@H](N)CNS(=O)(=O)c1ccc(-c2cnc(N)s2)c(-c2nn[nH]n2)c1S(N)(=O)=O` [Example 372, (S)-4-(2-aminothiazol-5-yl)-N1-(2,3-diaminopropyl)-3-(2H-tetrazol-5-yl)benzene-1,2-disulfonamide], for which, in data set [2], the “Escherichia coli (NDM-1) MITC95” value turned out to be 1.563 µM. In addition, in data set [3], the “Serratia marcescens (IMP-1) MITC95” value turned out to be 1.563 µM. In addition, the Efflux ratio in data set [4] was found to be 2.00.
Turning to `NC[C@H](O)CNS(=O)(=O)c1ccc(-c2cccc3[nH]c(N)nc23)c(-c2nn[nH]n2)c1S(N)(=O)=O` [Example 304, (S)-4-(2-amino-1H-benzo[d]imidazol-4-yl)-N1-(3-amino-2-hydroxypropyl)-3-(2H-tetrazol-5-yl)-benzene-1,2-disulfonamide], the “Escherichia coli (NDM-1) MITC95” value in data set [2] is 0.3906 µM. For the same molecule, the “Serratia marcescens (IMP-1) MITC95” value in data set [3] amounted to 0.7813 µM. In data set [4], the Efflux ratio is on record as 0.50.
On to `N[C@H]1CNC[C@H]1NS(=O)(=O)c1ccc(-c2cnc3cc[nH]c3c2)c(-c2nn[nH]n2)c1S(N)(=O)=O` [Example 320], for which the “Escherichia coli (NDM-1) MITC95” value in data set [2] was 0.7813 µM. Further, the “Serratia marcescens (IMP-1) MITC95” value in data set [3] is 0.7813 µM. Moreover, the Efflux ratio in data set [4] was 2.00.
Regarding `NCc1nc2c(-c3ccc(S(=O)(=O)NC(CN)CN)c(S(N)(=O)=O)c3-c3nn[nH]n3)cccc2[nH]1` [Example 385, 4-(2-(Aminomethyl)-1H-benzo[d]imidazol-4-yl)-N1-(1,3-diaminopropan-2-yl)-3-(2H-tetrazol-5-yl)benzene-1,2-disulfonamide], the “Escherichia coli (NDM-1) MITC95” value in data set [2] is 0.7813 µM. In addition, the “Serratia marcescens (IMP-1) MITC95” value in data set [3] turned out to be 0.7813 µM. In data set [4], the Efflux ratio was found to be 1.00.
As for `CNc1nc2c(-c3ccc(S(=O)(=O)N[C@H]4CCNC4)c(S(N)(=O)=O)c3-c3nn[nH]n3)cccc2[nH]1` [Example 295, (S)-4-(2-(methylamino)-1H-benzo[d]imidazol-4-yl)-N1-(pyrrolidin-3-yl)-3-(2H-tetrazol-5-yl)benzene-1,2-disulfonamide], the “Escherichia coli (NDM-1) MITC95” value in data set [2] was found to be 0.7813 µM. Further, the “Serratia marcescens (IMP-1) MITC95” value in data set [3] was determined as 0.7813 µM. In data set [4], the Efflux ratio was 1.00.
